According to patent publication US20250213701A1, “MEDICAMENT FOR TREATING HUMAN TUMOR BASED ON ERF3A-TARGETING PROTEOLYSIS MECHANISM” (SUZHOU DEGEN BIO-MEDICAL CO., LTD., priority 2022, published 2025):

Legend:
Assay type in all cases: cell-based, human
[1] = system: VCaP cells; test: Anti-proliferative toxicity against prostate cancer cell line Vcap (CCK8); settings: 3 days; for IC50: Homo sapiens, 72 h, CCK8
In short: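 VCaP cells (DMEM, 10% FBS) seeded 20000 cells/well, cultured 72 h, then exposed in triplicate to compound at final well concentrations of 0.00001–0.16 μM for 3 days at 37 °C, 5% CO2. Viability by CCK8, 1–4 h at 37 °C, absorbance at 450 nm.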

[2] = system: PC-3 cells; test: Anti-proliferative toxicity against prostate cancer cell line PC-3 (CCK8); settings: Homo sapiens, 72 h, 3 days
In short: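 PC-3 cells (4000/well, pre-cultured 24 h) exposed in triplicate to compound at final 0.00001-1.0 μM for 3 days at 37 °C, 5% CO2. Viability read by CCK8, 1-4 h at 37 °C, absorbance at 450 nm.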

[3] = system: 22Rv1 cells; test: Anti-proliferative toxicity against prostate cancer cell line 22Rv1 (CCK8); settings: 3 days; for IC50: Homo sapiens, 72 h, CCK8
In short: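 22Rv1 cells pre-cultured for 48 h, then exposed to compounds at 0.00001-1.0 μM final, in triplicate, for 3 days. Viability read by CCK8 absorbance at 450 nm after 1-4 h at 37 °C.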

Row | Structure (SMILES) | IC50 [1] | IC50 [2] | IC50 [3] | further results
1 | C[C@]12C=CC(=O)N[C@@H]1CC[C@@H]1[C@@H]2CC[C@]2(C)[C@@H](C(=O)Nc3cccc(OCCCCCCCCNc4ccc5c(c4)C(=O)N(C4CCC(=O)NC4=O)C5=O)c3)CC[C@@H]12 (stereo partly drawn) [C40, N-(3-((8-((5-(2-(3-(2,6-dioxopiperidine))-isoindole-1,3-dione))amino)octyl)oxy)phenyl)-3-oxo-4-aza-5α-androst-1-ene-17β-carboxamide] | 10 to 1000 nM | > 1000 nM | > 1000 nM | 
2 | C[C@]12C=CC(=O)N[C@@H]1CC[C@@H]1[C@@H]2CC[C@]2(C)[C@@H](C(=O)Nc3cccc(OCCCNc4cccc5c4CN(C4CCC(=O)NC4=O)C5=O)c3)CC[C@@H]12 (stereo partly drawn) [C41, N-(3-((3-((4-(2-(3-(2,6-dioxopiperidine))-1-oxo-2,3-dihydro-1H-isoindol))amino)propyl)oxy)phenyl)-3-oxo-4-aza-5α-androst-1-ene-17β-carboxamide] | 0.1 to 10 nM | > 1000 nM | 0.1 to 10 nM | 
3 | C[C@]12C=CC(=O)N[C@@H]1CC[C@@H]1[C@@H]2CC[C@]2(C)[C@@H](C(=O)Nc3cccc(OCC4CCN(c5cccc6c5C(=O)N(C5CCC(=O)NC5=O)C6=O)CC4)c3)CC[C@@H]12 (stereo partly drawn) [C42, N-(3-((4-methyl-1-(4-(2-(3-(2,6-dioxopiperidine))-isoindole-1,3-dione))-piperidinyl)oxy)phenyl)-3-oxo-4-aza-5α-androst-1-ene-17β-carboxamide] | > 1000 nM | > 1000 nM | > 1000 nM | 
4 | C[C@]12C=CC(=O)N[C@@H]1CC[C@@H]1[C@@H]2CC[C@]2(C)[C@@H](C(=O)Nc3cccc(N4CCC(CN5CCN(c6cccc7c6C(=O)N(C6CCC(=O)NC6=O)C7=O)CC5)CC4)c3)CC[C@@H]12 (stereo partly drawn) [C44, 1-(4-(1-(3-(3-oxo-4-aza-5α-androst-1-ene-17β-carboxamido)phenyl)piperidine))methyl-4-(4-(2-(3-(2,6-dioxopiperidine))-isoindole-1,3-dione))piperazine] | > 1000 nM | > 1000 nM | > 1000 nM | 
5 | C[C@]12C=CC(=O)N[C@@H]1CC[C@@H]1[C@@H]2CC[C@]2(C)[C@@H](C(=O)Nc3cccc(N4CCC(CN5CCN(c6ccc7c(c6)C(=O)N(C6CCC(=O)NC6=O)C7=O)CC5)CC4)c3)CC[C@@H]12 (stereo partly drawn) [C45, 1-(4-(1-(3-(3-oxo-4-aza-5α-androst-1-ene-17β-carboxamido)phenyl)piperidine)methyl)-4-(5-(2-(3-(2,6-dioxopiperidine))-isoindole-1,3-dione))piperazine] | > 1000 nM | > 1000 nM | > 1000 nM | 
6 | C[C@]12C=CC(=O)N[C@@H]1CC[C@@H]1[C@@H]2CC[C@]2(C)[C@@H](C(=O)Nc3cccc(OCCCOc4cccc5c4C(=O)N(C4CCC(=O)NC4=O)C5=O)c3)CC[C@@H]12 (stereo partly drawn) [C46, N-(3-((3-((4-(2-(3-(2,6-dioxopiperidine))-isoindole-1,3-dione))oxy)propyl)oxy)phenyl)-3-oxo-4-aza-5α-androst-1-ene-17β-carboxamide] | 0.1 to 10 nM | > 1000 nM | 0.1 to 10 nM | 
7 | C[C@]12C=CC(=O)N[C@@H]1CC[C@@H]1[C@@H]2CC[C@]2(C)[C@@H](C(=O)Nc3ccc(OCCNc4ccc5c(c4)C(=O)N(C4CCC(=O)NC4=O)C5=O)nc3)CC[C@@H]12 (stereo partly drawn) [C47, N-(5-(2-((2-((5-(2-(3-(2,6-dioxopiperidine))-isoindole-1,3-dione))amino)ethyl)oxy)pyridine))-3-oxo-4-aza-5α-androst-1-ene-17β-carboxamide] | 10 to 1000 nM | > 1000 nM | 10 to 1000 nM | 
8 | C[C@]12C=CC(=O)N[C@@H]1CC[C@@H]1[C@@H]2CC[C@]2(C)[C@@H](C(=O)Nc3cccc(N4CCC(CNc5cccc6c5C(=O)N(C5CCC(=O)NC5=O)C6=O)CC4)c3)CC[C@@H]12 (stereo partly drawn) [C48, N-(3-(4-(((4-(2-(3-(2,6-dioxopiperidine))-isoindole-1,3-dione))amino)methyl)piperidine)phenyl)-3-oxo-4-aza-5α-androst-1-ene-17β-carboxamide] | > 1000 nM | > 1000 nM | > 1000 nM | 
9 | CC(C)(C)C(=O)OCN1C(=O)CCC(N2C(=O)c3cccc(NCCCOc4cccc(NC(=O)[C@H]5CC[C@H]6[C@@H]7CC[C@H]8NC(=O)C=C[C@]8(C)[C@H]7CC[C@]56C)c4)c3C2=O)C1=O (stereo partly drawn) [C49, N-(3-((3-((4-(2-(3-(1-pivaloyloxymethyl-2,6-dioxopiperidine))-isoindole-1,3-dione))amino)propyl)oxy)phenyl)-3-oxo-4-aza-5α-androst-1-ene-17β-carboxamide] | 0.1 to 10 nM | > 1000 nM | 0.1 to 10 nM | 
10 | C[C@]12C=CC(=O)N[C@@H]1CC[C@@H]1[C@@H]2CC[C@]2(C)[C@@H](C(=O)Nc3cccc(NCCCNc4cccc5c4C(=O)N(C4CCC(=O)NC4=O)C5=O)c3)CC[C@@H]12 (stereo partly drawn) [C50, N-(3-((3-((4-(2-(3-(2,6-dioxopiperidine))-isoindole-1,3-dione))amino)propyl)amino)phenyl)-3-oxo-4-aza-5α-androst-1-ene-17β-carboxamide] | 0.1 to 10 nM | 10 to 1000 nM | 0.1 to 10 nM | Anti-proliferative toxicity data in VCaP cells ([1]; 0.00005 μM): 1.2%; Anti-proliferative toxicity data in VCaP cells ([1]; 0.00010 μM): 22.8%; Anti-proliferative toxicity data in VCaP cells ([1]; 0.00030 μM): 72.3%; Anti-proliferative toxicity data in VCaP cells ([1]; 0.00100 μM): 86.6%; Anti-proliferative toxicity data in VCaP cells ([1]; 0.00300 μM): 90.5%; Anti-proliferative toxicity data in VCaP cells ([1]; 0.00600 μM): 90.7%; Anti-proliferative toxicity data in VCaP cells ([1]; 0.03200 μM): 91.5%; Anti-proliferative toxicity data in VCaP cells ([1]; 0.16000 μM): 91.7%; Anti-proliferative toxicity data in 22Rv1 cells ([3]; 0.00006 μM): 6.6%; Anti-proliferative toxicity data in 22Rv1 cells ([3]; 0.00032 μM): 45.2%; Anti-proliferative toxicity data in 22Rv1 cells ([3]; 0.00160 μM): 78.4%; Anti-proliferative toxicity data in 22Rv1 cells ([3]; 0.00800 μM): 80.7%; Anti-proliferative toxicity data in 22Rv1 cells ([3]; 0.04000 μM): 75.0%; Anti-proliferative toxicity data in 22Rv1 cells ([3]; 0.20000 μM): 80.6%; Anti-proliferative toxicity data in 22Rv1 cells ([3]; 1.00000 μM): 81.5%
11 | C[C@]12C=CC(=O)N[C@@H]1CC[C@@H]1[C@@H]2CC[C@]2(C)[C@@H](C(=O)Nc3ccc(Cl)c(OCCCNc4cccc5c4C(=O)N(C4CCC(=O)NC4=O)C5=O)c3)CC[C@@H]12 (stereo partly drawn) [C51, N-(3-((3-((4-(2-(3-(2,6-dioxopiperidine))-isoindole-1,3-dione))amino)propyl)oxy)-4-chloro-phenyl)-3-oxo-4-aza-5α-androst-1-ene-17β-carboxamide] | > 1000 nM | > 1000 nM | > 1000 nM | 
12 | Cc1ccc(NC(=O)[C@H]2CC[C@H]3[C@@H]4CC[C@H]5NC(=O)C=C[C@]5(C)[C@H]4CC[C@]23C)cc1OCCCNc1cccc2c1C(=O)N(C1CCC(=O)NC1=O)C2=O (stereo partly drawn) [C52, N-(3-((3-((4-(2-(3-(2,6-dioxopiperidine))-isoindole-1,3-dione))amino)propyl)oxy)-4-methyl-phenyl)-3-oxo-4-aza-5α-androst-1-ene-17β-carboxamide] | > 1000 nM | > 1000 nM | > 1000 nM | 
13 | C[C@]12C=CC(=O)N[C@@H]1CC[C@@H]1[C@@H]2CC[C@]2(C)[C@@H](C(=O)Nc3cc(OCCCNc4cccc5c4C(=O)N(C4CCC(=O)NC4=O)C5=O)ccn3)CC[C@@H]12 (stereo partly drawn) [C53, N-(2-(4-((3-((4-(2-(3-(2,6-dioxopiperidine))-isoindole-1,3-dione))amino)propyl)oxy)-pyridine))-3-oxo-4-aza-5α-androst-1-ene-17β-carboxamide] | > 1000 nM | > 1000 nM | > 1000 nM | 
